Entries after “also recorded” stand apart in the source; their conditions may differ. Read-outs that look alike come from different tables or passages of the source.
Legend:
[1] = test system: MER-positive (Kasumi-1 and U937) AML cell lines; experiment: Apoptosis of MER-positive AML cell lines by flow cytometry; assay type: cell-based; details: vehicle 20±10%, p<0.01
Text: (§1) FLT-3 and MER tyrosine kinases have been previously identified as potential targets in the treatment of acute myeloid leukemia (AML). Expression of FLT-3 internal tandem duplication (ITD) occurs in ˜30-40% of AML patient samples and MER overexpression has been detected in ˜80-100%. In this example, a novel first-in-class small molecule inhibitor that has potent activity against both of these kinases and mediates growth inhibition or apoptosis of cell lines and patient myeloblasts is disclosed. […] See, FIGS. 4A-F.

[2] = test system: FLT3-ITD-positive (Molm-13 and MV4; 11) AML cell lines; experiment: Apoptosis of FLT3-ITD AML cell lines by flow cytometry; assay type: cell-based; details: vehicle 10±2%, p<0.001
Text: as §1

[3] = test system: MER-positive (Kasumi-1 and U937) AML cell lines; experiment: Soft agar colony formation of MER-positive AML cell lines; assay type: cell-based; details: vehicle = 100, p<0.01
Text: as §1

[4] = test system: primary AML patient samples (MER and/or FLT3-ITD positive); experiment: Primary AML patient samples: phosphorylation, apoptosis, colony formation in methylcellulose; assay type: cell-based, human
Text: as §1

[5] = test system: AKT and STAT6 activation; experiment: AKT and STAT6 activation in AML cell lines; assay type: cell-based; details: short term exposure; cell lines expressing FLT3-ITD or MER
Text: as §1

[6] = Dose-finding and tolerability in mice, drug in chow; assay type: in vivo; details: for MTD: mouse, in vivo
Description: […]. AZD6244 is a MEK inhibitor that was administered in mouse chow at a predicted dose of 37 mg/kg (MTD). UNC2025 was administered in chow at a predicted dose of 120 mg/kg (MTD). […]. AZD6244 is a MEK inhibitor that was dosed in mouse chow at a predicted dose of 37 mg/kg (MTD). UNC2025 was dosed in chow at a predicted dose of 120 mg/kg (MTD).
. Once daily, oral dosing inhibits the growth of Mer-expressing leukemia and NSCLC xenografts. […]. After dose-finding studies in wild-type mice established an MTD, the inhibitor was given at 120 mpk/d in mouse chow. […]. The overall response was 10% (partial responses and stable disease). There were no complete responses. […]. […] See, FIG. 16A and FIG. 16B.

[7] = test system: B-RAF wildtype (HMCB) and B-RAF mutant (G361) cell lines; experiment: Colony formation of melanoma cell lines; assay type: cell-based; details: for colony formation: HMCB and G361
Text: (§2) See, FIG. 25A and FIG. 25B.

[8] = test system: SKMEL119 melanoma cells; experiment: Invasion into collagen matrix; assay type: cell-based
[9] = mouse, in vivo
[10] = test system: RAS-driven, INK4a/Arf null melanoma GEMM (TRIA); experiment: RAS-driven, INK4a/Arf null melanoma GEMM (TRIA); assay type: in vivo
Description: FIG. 14 is a waterfall plot showing percent change in tumor volumes verses days of treatment in the TRIA GEM model of melanoma. Mice were treated with UNC2025, AZD6244, Carbo/Taxol or received no treatment.
After dose-finding studies in wild-type mice established an MTD, the inhibitor was given at 120 mpk/d in mouse chow.

[11] = test system: murine model of breast cancer (C3TAg); experiment: Murine model of breast cancer (C3TAg); assay type: in vivo; details: 120 mpk/d in chow
[12] = test system: HMCB and G361 melanoma cell lines; experiment: Apoptosis of melanoma cell lines by flow cytometry (YO-PRO-1 iodide/propidium iodide); assay type: cell-based
Text: as §2

[13] = test system: Colo699 (Mer+, FGFR+) and H226 (Mer+, FGFR+) NSCLC cells; experiment: Soft agar colony formation of NSCLC cells, Mer TKI and FGFR TKI; assay type: cell-based; details: 14 days
[14] = molecular target: T1, Mer (Homo sapiens, UniProt Q12866); experiment: Mer autophosphorylation in NSCLC cell lines by immunoblot; assay type: cell-based; details: numerous cell lines
T1 sequence (Q12866 21-999): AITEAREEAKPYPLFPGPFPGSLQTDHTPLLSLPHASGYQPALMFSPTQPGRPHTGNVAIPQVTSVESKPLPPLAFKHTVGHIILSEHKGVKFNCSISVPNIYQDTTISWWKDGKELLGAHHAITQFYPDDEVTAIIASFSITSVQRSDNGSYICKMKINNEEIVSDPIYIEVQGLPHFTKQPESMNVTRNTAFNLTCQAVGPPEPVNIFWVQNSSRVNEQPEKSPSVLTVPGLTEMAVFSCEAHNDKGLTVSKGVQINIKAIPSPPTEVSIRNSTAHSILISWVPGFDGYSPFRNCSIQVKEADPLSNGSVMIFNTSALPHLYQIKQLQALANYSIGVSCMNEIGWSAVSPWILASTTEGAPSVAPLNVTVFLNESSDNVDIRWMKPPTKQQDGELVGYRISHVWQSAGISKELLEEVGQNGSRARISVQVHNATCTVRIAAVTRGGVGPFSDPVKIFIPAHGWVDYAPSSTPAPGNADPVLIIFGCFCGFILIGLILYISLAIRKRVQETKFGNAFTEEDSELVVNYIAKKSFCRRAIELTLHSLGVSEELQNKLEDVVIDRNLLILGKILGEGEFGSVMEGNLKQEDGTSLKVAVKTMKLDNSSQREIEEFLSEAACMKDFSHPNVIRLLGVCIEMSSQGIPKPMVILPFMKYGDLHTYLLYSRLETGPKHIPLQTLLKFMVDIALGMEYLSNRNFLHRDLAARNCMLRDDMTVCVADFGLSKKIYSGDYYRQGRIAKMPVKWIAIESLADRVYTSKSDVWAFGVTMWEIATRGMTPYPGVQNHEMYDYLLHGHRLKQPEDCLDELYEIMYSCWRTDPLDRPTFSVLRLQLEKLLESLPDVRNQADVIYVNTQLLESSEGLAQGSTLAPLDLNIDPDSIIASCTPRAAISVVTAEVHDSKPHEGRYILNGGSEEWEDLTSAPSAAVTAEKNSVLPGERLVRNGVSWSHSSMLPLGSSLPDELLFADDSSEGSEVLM
Description: (§3) The effects of Mer TKI treatment on activation of Mer and related members of the TAM-family of kinases, Axl and Tyro3, and effects on downstream proliferative and pro-survival signaling pathways were analyzed by immunoblot. In addition, Mer TKI-mediated anti-tumor activity was determined in a panel of NSCLC cell lines using soft-agar and clonogenic assays. Cells were stained with YoPro-1-iodide and propidium iodide dyes and induction of apoptosis was determined using flow cytometry. Finally, a subcutaneous murine xenograft model was employed to determine therapeutic effects in vivo.

[15] = test system: Colo699 cells; experiment: Subcutaneous murine xenograft model of NSCLC; assay type: in vivo
Description: FIG. 18A is a graph illustrating tumor volume verses days treated. Colo699 tumor cells were subcutaneously implanted in mice.
as §3

[16] = test system: PyVmT mammary gland tumor cells; experiment: Orthotopic PyVmT mammary gland tumor model in immunocompetent C57Bl/6 mice; assay type: in vivo
Description: FIG. 10A is an immunoblot showing the presence of Mer TK in J774 murine macrophage and absence in PyVmT murine mammary tumor cells. FIGS. 10B and 10C illustrate the results from an immune-competent orthotopic model of Mer-negative breast cancer. […] FIG. 10B is a graph showing tumor volume (mm^3) verses days post-tumor injection.
FIG. 21A is a timeline illustrating a mouse model using PyVmT cells. […] Mice were dosed from day −2 to day 28. At day zero, 1×10^6 PyVmT cells were implanted into the inguinal mammary fatpad of mice. Tumor volumes were measured at days 16, 19, 21, 23, 26 and 28. Day 28 was the end of the study. FIG. 21B is a graph illustrating tumor volume […] verses days post-tumor injection.
See, FIGS. 10A-10C and FIGS. 21A and 21B.

[17] = test system: TRIA; experiment: TRIA tumors injected into NSG mice; assay type: in vivo; details: linear regression p<0.001
Description: FIG. 20A is a graph of tumor volume (mm^3) verses days. This is treatment of the intact GEMM. FIG. 20B is a graph illustrating the results from TRIA injected into NSG mice. The mice were then treated with no drug or UNC2025. […] In FIGS. 20A and 20B, both treated slopes were statistically significant compared to untreated slopes using linear regression p<0.001. FIG. 20C; Pten/Braf genetically engineered mice were treated with no drug or UNC2025. The graph illustrates tumor volumes (mm^3) verses days on treatment.

[18] = test system: MER-expressing ALL cell lines; experiment: Apoptosis and colony formation in methylcellulose of ALL cell lines; assay type: cell-based
[19] = test system: ERK, AKT, and STAT6 signaling downstream of MER; details: immunoblot
Description: Downstream signaling was evaluated by immunoblotting, and induction of apoptosis was determined by flow cytometry in cells stained with YO-PRO®-1 iodide and propidium iodide.

[20] = Pharmacokinetics in mice; details: mouse, in vivo
[21] = test system: B-ALL xenograft
[22] = compared to vehicle treated tumor-bearing mice

Which results are given for `CCCCNc1ncc2c(-c3ccc(S(=O)(=O)N4CCOCC4)cc3)cn(C3CCC(O)CC3)c2n1` (stereo not drawn) [UNC1666]?
apoptotic cells [1]: 66±10%; apoptotic cells [2]: 90±6%; relative colony counts [3]: 34±15; Mer and Flt3 kinase phosphorylation and downstream signaling ([4]; leukemic blasts from a patient with AML, 50, 100 and 300 nM): abrogates; colony formation in methylcellulose ([4]; six primary patient samples): near complete inhibition of colony formation; induction of apoptosis ([4]; six primary patient samples): dose-dependent induction of apoptosis; AKT and STAT6 activation [5]: dose-dependent decrease

For `Cn1cnc2c(F)c(Nc3ccc(Br)cc3Cl)c(C(=O)NOCCO)cc21` [AZD6244, reference compound], which MTD [6] is on record?
Its MTD is 37 mg/kg.

What does the source list for `CCCCNc1ncc2c(-c3ccc(S(=O)(=O)N4CCOCC4)cc3)nn(C3CCC(O)CC3)c2n1` (stereo not drawn) [UNC1062]?
colony formation [7]: reduced colony formation; invasion into collagen matrix [8]: reduced invasion; oral bioavailability / pharmacokinetics [9]: orally bioavailable

With `CCCCNc1ncc2c(-c3ccc(CN4CCN(C)CC4)cc3)cn([C@H]3CC[C@H](O)CC3)c2n1` [MRX6313] as the compound, how does the “toxicity in the TRIA model” value ([10]; 120 mpk/d in chow) read?
The value was “mild, well tolerated toxicity”.

And the “complete responses (CRs)” value ([10]; TRIA, 8 mice)?
Its value is 3.

What about the single agent activity ([10]; TRIA, 120 mpk/d in chow) of the same compound?
The single agent activity was “pronounced single agent activity”.

And the “percent change in tumor volumes, waterfall plot, ranking” value ([10]; versus AZD6244, Carbo/Taxol, no treatment)?
The value was “best response”.

What about the single agent activity [11] of the same compound?
Its single agent activity is “did not exhibit single agent activity”.

What about the “Mer pharmacodynamics marker (platelet aggregation)” value ([6]; 120 mpk/d in mouse chow) of the same compound?
The value was “inhibition of second phase platelet aggregation”.

And the weight loss ([6]; 120 mpk/d in mouse chow)?
The weight loss was “did not cause weight loss”.

What about the MTD ([6]; oral, administered in chow, read-out: MTD, predicted dose in mouse chow) of the same compound?
Its MTD is 120 mg/kg.

What about the “concentration resulting in an almost complete block in colony formation” value ([7]; B-RAF wild-type and B-RAF mutant cell lines) of the same compound?
The value was no less than 300 nM.

What about the colony formation [7] of the same compound?
Its colony formation is “reduced colony growth”.

And the apoptosis [12]?
Its apoptosis is “induced apoptosis”.

What about the “colony formation in soft agar” value [13] of the same compound?
The value was “inhibited”.

And the “concentrations that blocked Mer autophosphorylation” value [14]?
Its value is “sub-micromolar”.

What about the tumor volume [15] of the same compound?
Its tumor volume is “significant decrease in tumor volume”.

What about the “RNA-sequence data on immune cells” value ([16]; 3 mg/kg twice daily by oral gavage) of the same compound?
Its value is “increases pro-inflammatory cytokines in CD11b^+ cells and activates CD8^+ T cell effector function”.

What about the “primary tumor growth reduction compared to vehicle” value ([16]; after four weeks of daily treatment) of the same compound?
The value was “two-fold”.

What about the “reduction of serum IL-4 level” value [16, 22] of the same compound?
Its value is 30%.

And the “reduction of serum IL-10 level” value [16, 22]?
Its value is 20%.

What about the “tumor volumes versus control” value [17] of the same compound?
The value was “significantly reduced”.

And the “apoptosis and colony-formation in methylcellulose” value [18]?
The value was “induction of apoptosis and reduced colony-formation”.

And the downstream signaling [19]?
The downstream signaling was “abrogates signaling downstream of MER”.

What about the “oral bioavailability / pharmacokinetics” value [20] of the same compound?
Its value is “orally bioavailable; also recorded: favorable pharmacokinetics”.

What about the median survival ([21]; days after inoculation with tumor cells, vehicle 27 days, p<0.0001) of the same compound?
The median survival was 70 days.

And the tumor burden ([21]; minimal residual disease model)?
The tumor burden was “dose dependent reduction in tumor burden”.

For `COc1cc(CCc2cc(NC(=O)c3ccc(N4CC(C)NC(C)C4)cc3)n[nH]2)cc(OC)c1` (stereo not drawn) [AZD-4547, reference compound], which “colony formation in soft agar” value [13] is on record?
The value was “inhibited”.
